The source made the active and inactive calls.
What was measured:
H4 = test: Luminescence Cell-Based Dose Response HTS to Identify Activators of 5'UTR Stem-Loop Driven Prion Protein mRNA Translation in H4 Neuroglioblastoma Cells. [Related pubchem assays: 1829 (Project Summary), 1814 (Primary HTS)]; format: functional; details: Homo sapiens
Streptococcus = test: Group A Streptococcus viability loss, dose response, counter-screen for streptokinase expression inhibitor project, luminescence, BacTiterGlo (AID 1915); format: functional, organism-based;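 note: potency for reduction of bacterial viability or growth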
[1] = Luminescence Cell-Based Dose Response to Identify Activators of 5'UTR Stem-Loop Driven Prion Protein mRNA Translation in H4-C Neuroglioblastoma Cells. [Related pubchem assays: 1829 (Project Summary), 1814 (Primary HTS)]; format: functional
Streptokinase A = target: T1, Streptokinase A (Streptococcus pyogenes serotype M1, UniProt P10520); test: S. pyogenes streptokinase expression inhibitors, potency, dose response, plasminogen activation absorbance, OD405 (AID 1914); format: functional, Streptococcus pyogenes M1 GAS;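 note: secreted streptokinase activity via plasminogen activation per viability signal from cell pellet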
T1 sequence (P10520 whole entry): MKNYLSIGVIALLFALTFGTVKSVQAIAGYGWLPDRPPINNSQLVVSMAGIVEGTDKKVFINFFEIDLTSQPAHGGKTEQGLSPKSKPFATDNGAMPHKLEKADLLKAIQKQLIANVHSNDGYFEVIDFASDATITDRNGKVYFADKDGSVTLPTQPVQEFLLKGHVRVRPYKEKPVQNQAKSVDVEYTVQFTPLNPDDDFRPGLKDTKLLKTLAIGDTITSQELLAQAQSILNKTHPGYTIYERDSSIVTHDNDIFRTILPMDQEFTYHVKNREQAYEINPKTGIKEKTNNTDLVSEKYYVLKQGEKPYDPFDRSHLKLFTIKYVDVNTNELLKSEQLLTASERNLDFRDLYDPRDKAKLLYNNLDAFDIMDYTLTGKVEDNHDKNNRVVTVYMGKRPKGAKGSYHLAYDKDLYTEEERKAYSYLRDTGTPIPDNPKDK

[2] = Luminescence Cell-Based Dose Confirmation to Identify Activators of 5'UTR Stem-Loop Driven Alpha-Synuclein mRNA Translation in H4 Neuroglioblastoma Cells. [Related pubchem assays: 1829 (Project Summary), 1814 (Primary HTS)]; format: functional
[3] = Luminescence Cell-Based Dose Confirmation HTS to Identify Activators of 5'UTR Stem-Loop Driven Alpha-Synuclein mRNA Translation in H4 Neuroglioblastoma Cells. [Related pubchem assays: 1829 (Project Summary), 1814 (Primary HTS)]; format: functional
[4] = target: Beta-2 adrenergic receptor (Homo sapiens, UniProt P07550); test: beta2AR agonists driving receptor internalization, dose response, cell-based, FAP fluorogen, flow cytometry, cherry pick 1 (AID 588763); format: functional
Sequence of Beta-2 adrenergic receptor (P07550 whole entry): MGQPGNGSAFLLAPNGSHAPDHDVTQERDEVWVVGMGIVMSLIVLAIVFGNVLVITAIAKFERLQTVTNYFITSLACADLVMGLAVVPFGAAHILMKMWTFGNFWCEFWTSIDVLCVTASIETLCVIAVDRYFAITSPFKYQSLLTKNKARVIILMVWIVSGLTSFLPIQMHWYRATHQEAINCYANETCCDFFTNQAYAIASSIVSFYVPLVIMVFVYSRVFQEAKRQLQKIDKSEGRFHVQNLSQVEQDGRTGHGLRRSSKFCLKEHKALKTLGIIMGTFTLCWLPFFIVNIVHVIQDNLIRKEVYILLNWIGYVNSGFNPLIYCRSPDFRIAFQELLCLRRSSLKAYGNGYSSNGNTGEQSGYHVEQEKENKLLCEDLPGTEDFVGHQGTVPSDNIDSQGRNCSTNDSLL

[5] = test system: Streptococcus sp. 'group A'; test: growth inhibition of control SK(-) GAS strain, dose response, counter-screen for streptokinase expression inhibitor project, luminescence, kanamycin, BacTiterGlo, confirmation (AID 1900); format: functional, organism-based
[6] = Luminescence Cell-Based Dose Response HTS to Identify Activators of Luciferase Translation or Activity in H4 […] Cells. [Related pubchem assays: 1829 (Project Summary), 1814 (Primary HTS)]; format: functional
[7] = Luminescence Cell-Based Dose Response to Identify Activators of Luciferase Translation or Activity in H4-C Neuroglioblastoma Cells. [Related pubchem assays: 1829 (Project Summary), 1814 (Primary HTS)]; format: functional
HeLa = test: HeLa cell cytotoxicity, dose response, cytotoxicity control for MITF activator project, CellTiter-Glo luminescence, cherry-pick samples (AID 540259); format: functional, cell-based; details: Homo sapiens
Cysteine protease ATG4B = target: T2, Cysteine protease ATG4B (Homo sapiens, UniProt Q9Y4P1); format: functional;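 note: Fluorescence-based dose-response confirmation assay measuring inhibition of ATG4B activity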
T2 sequence (Q9Y4P1 whole entry): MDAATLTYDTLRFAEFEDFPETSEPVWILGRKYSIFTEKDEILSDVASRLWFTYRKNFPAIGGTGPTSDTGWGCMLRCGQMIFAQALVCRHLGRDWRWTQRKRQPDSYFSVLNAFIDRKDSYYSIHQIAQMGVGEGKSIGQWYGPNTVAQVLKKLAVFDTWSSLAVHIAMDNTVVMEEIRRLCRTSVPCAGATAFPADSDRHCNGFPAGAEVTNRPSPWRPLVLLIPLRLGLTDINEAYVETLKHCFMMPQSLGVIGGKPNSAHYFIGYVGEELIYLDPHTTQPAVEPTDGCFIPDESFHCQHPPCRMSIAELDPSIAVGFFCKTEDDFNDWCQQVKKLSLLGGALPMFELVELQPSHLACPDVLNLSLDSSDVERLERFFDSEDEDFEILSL

Phospholipase A2 = Phospholipase A2 (Homo sapiens, UniProt P04054); format: functional;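 note: confirmatory dose-response counterscreen on phospholipase A2, testing hits that came from an ultra-high-throughput screen for ATG4B inhibitors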
Sequence of Phospholipase A2 (P04054 whole entry): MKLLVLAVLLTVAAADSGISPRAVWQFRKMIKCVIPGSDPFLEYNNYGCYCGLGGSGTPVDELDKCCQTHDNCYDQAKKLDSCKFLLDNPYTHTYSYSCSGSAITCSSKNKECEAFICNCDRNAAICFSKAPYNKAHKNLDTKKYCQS

Caspase-3 = target: T3, Caspase-3 (Homo sapiens, UniProt P42574); format: functional;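 note: Dose-response selectivity test against caspase-3 for candidate inhibitors of sentrin-specific proteases (SENPs)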
T3 sequence (P42574 whole entry): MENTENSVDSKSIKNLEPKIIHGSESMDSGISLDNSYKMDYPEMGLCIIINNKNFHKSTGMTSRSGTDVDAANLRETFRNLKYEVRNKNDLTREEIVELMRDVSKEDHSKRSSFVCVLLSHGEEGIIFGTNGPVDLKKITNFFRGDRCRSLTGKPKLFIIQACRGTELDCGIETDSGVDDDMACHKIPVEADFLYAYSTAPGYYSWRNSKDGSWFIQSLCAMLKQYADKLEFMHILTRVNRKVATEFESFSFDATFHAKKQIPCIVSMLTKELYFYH

[8] = Luminescence Cell-Based Dose Retest to Confirm Inhibitors of Cancer Stem Cells. [Related pubchem assays (depositor defined):AID2717, AID2721]; format: functional; details: Homo sapiens
[9] = target: T4, Sentrin-specific protease 6 (Homo sapiens, UniProt Q9GZR1); format: functional;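 note: Luminescence-based dose-response confirmatory assay of SENP6 inhibition, following up an ultra-high-throughput screen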
T4 sequence (Q9GZR1 whole entry): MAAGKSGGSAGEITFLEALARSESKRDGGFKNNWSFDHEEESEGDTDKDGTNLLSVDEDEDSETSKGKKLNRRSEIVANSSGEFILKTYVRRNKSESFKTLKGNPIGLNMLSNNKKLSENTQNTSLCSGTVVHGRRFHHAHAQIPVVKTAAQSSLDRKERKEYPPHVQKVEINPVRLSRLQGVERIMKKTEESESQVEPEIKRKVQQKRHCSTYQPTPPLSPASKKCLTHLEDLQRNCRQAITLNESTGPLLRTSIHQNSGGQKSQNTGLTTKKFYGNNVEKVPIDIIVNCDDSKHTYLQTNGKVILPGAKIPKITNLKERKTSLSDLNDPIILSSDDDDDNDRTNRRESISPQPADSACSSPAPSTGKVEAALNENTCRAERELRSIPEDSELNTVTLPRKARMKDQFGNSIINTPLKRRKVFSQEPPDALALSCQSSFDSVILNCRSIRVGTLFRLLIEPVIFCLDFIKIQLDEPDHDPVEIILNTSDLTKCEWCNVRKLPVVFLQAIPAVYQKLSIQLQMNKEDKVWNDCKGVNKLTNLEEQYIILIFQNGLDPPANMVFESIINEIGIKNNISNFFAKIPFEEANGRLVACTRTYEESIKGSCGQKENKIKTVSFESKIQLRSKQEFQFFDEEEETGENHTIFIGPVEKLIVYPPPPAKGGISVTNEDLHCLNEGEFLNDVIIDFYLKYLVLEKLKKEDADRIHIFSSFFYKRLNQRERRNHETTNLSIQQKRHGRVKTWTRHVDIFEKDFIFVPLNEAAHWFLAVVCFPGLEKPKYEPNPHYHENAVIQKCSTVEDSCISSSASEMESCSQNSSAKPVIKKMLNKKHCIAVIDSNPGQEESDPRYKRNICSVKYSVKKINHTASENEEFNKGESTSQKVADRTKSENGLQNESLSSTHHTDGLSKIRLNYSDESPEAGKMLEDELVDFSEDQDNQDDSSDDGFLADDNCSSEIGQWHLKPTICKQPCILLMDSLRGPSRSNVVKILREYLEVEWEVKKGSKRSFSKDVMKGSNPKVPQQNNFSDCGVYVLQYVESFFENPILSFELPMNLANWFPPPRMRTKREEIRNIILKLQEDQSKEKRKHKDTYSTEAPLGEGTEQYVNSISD

[10] = target: T5, Sentrin-specific protease 7 (Homo sapiens, UniProt Q9BQF6); format: functional;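 note: Luminescence-based dose-response confirmation of ultra-high-throughput screening hits, measuring inhibition of SENP7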
T5 sequence (Q9BQF6 whole entry): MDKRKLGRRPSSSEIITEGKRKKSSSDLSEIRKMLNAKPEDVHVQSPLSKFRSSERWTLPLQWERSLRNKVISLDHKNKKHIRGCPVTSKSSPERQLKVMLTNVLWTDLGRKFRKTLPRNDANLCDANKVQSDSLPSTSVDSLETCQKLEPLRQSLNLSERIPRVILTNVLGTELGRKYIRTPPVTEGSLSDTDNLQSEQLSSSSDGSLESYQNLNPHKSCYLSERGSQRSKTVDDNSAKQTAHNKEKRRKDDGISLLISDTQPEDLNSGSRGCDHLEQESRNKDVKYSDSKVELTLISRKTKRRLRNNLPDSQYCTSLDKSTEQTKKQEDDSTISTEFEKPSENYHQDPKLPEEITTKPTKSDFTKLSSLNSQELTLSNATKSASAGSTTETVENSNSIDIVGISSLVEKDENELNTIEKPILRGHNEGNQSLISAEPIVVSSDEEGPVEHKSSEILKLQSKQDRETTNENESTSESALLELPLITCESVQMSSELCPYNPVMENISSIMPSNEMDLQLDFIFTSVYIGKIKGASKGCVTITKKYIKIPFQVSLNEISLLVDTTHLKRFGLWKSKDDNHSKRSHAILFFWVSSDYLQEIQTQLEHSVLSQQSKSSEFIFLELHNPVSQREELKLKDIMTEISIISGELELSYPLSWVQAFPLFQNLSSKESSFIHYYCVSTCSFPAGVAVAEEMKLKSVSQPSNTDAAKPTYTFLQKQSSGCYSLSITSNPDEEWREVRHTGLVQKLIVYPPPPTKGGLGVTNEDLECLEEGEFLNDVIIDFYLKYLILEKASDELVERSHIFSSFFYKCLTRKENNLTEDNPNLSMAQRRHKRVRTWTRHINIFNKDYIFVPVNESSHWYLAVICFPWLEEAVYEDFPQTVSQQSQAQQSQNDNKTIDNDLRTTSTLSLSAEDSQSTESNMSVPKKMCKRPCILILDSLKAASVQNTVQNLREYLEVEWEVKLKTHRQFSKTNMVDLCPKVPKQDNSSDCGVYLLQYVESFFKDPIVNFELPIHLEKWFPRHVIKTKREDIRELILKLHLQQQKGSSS

[11] = target: T6, Sentrin-specific protease 8 (Homo sapiens, UniProt Q96LD8); format: functional;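 note: luminescence read-out of SENP8 inhibition, dose-response confirmation following an ultra-high-throughput screen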
T6 sequence (Q96LD8 whole entry): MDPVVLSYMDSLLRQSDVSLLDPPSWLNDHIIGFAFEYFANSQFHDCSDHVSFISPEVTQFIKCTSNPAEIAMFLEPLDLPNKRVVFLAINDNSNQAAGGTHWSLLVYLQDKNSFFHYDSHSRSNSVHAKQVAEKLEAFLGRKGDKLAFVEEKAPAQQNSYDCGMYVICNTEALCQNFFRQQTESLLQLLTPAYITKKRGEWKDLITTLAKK

[12] = target: Heat shock protein HSP 90-alpha (Homo sapiens, UniProt P07900); format: functional, organism-based

Row | SMILES | IC50 (Cysteine protease ATG4B) | IC50 (Phospholipase A2) | IC50 (Caspase-3) | IC50 [9] | IC50 [10] | IC50 [11] | further results
1 | Cc1cccc2nc(COc3ccc4ccccc4c3Br)cn12 |  |  |  |  |  |  | EC50 (H4): > 120 µM (not active); EC50 (Streptococcus): > 150 µM (not active); EC50 [1]: 0.638 µM (active); EC50 (Streptokinase A): > 150 µM (not active); EC50 [2]: 0.34 µM (active); EC50 [3]: 0.167 µM (active); EC50 [4]: 3.71 µM (active); EC50 [5]: 12.7 µM (active); EC50 [6]: < 0.1 µM (inconclusive); EC50 [7]: 0.561 µM (active); AC50 (HeLa): 73 µM (active)
2 | O=C(O)c1cccc(CSc2nc(-c3ccc(Cl)cc3)cc(C(F)(F)F)n2)c1 | 12.8 µM (active) | 11.4 µM (active) |  |  |  |  | 
3 | CCCc1ccc(OCc2nc(-c3ccc(NC(=O)c4ccco4)cc3)no2)cc1 |  |  |  |  |  |  | EC50 [4]: 0.161 µM (active)
4 | Cc1ccc(C(=O)Nc2nc(C)c(C(=O)Nc3ccc4c(c3)CCC4)s2)cc1 |  |  | 19.8 µM (active) | > 100 µM (inactive) | 8.21 µM (active) | > 100 µM (inactive) | AC50 [8]: 0.458 µM (active)
5 | O=C(Cn1cccc1C(=O)c1ccccc1)NCCC1=CCCCC1 | 20.1 µM (inactive) | 11.7 µM (active) |  |  |  |  | 
6 | COc1ccc2c(c1)CCc1c(C(=O)N3CCc4ccccc4C3)noc1-2 |  |  |  |  |  |  | AC50 [12]: 6.29 µM (active)
7 | O=C(NC(=S)NCCC1=CCCCC1)c1ccc(Br)o1 | 15.9 µM (active) | 9.44 µM (active) |  |  |  |  | EC50 (H4): 18.1 µM (active); EC50 [3]: 83 µM (active); EC50 [6]: 15.1 µM (active)
8 | O=C(N/N=C/c1cccc(Oc2ccccc2)c1)c1cccc(O)c1 |  |  | 31.2 µM (active) | 25.7 µM (active) | 10.7 µM (active) | 24 µM (active) | 
9 | COc1ccc(/C=N/Nc2nncc3ccccc23)c(OC)c1 |  |  | 7.23 µM (active) | 11.1 µM (active) | 3.46 µM (active) | 44.8 µM (active) | 

Source: ChEMBL document CHEMBL1201862, “PubChem BioAssay data set” (2004)
